“And” between values parts separate entries of the source, which are not always exact repeats. Identical values can stand only once. “Also recorded” adds a separate entry of the source. Like-named read-outs stand apart in the source and are kept apart here.
Columns and labels:
[1] = tested on: aSYN expressing larvae; assay: Larval survival assay in liquid culture; assay type: in vivo, Drosophila; conditions: for survival: after 4 days in liquid culture, DMSO 14%, untreated 13%
Method: (§1) Embryos are collected from transgenic strains and dispensed in 96-well plates containing liquid media culture (200 uL/well). Stock compounds (15, 15×10^−2, 15×10^−5 mM) prepared in DMSO, are diluted 1/10 with media, and then 1 uL of this working reagent is dispensed in culture wells. Percentage survival of mutant and negative control larvae are recorded on day 4 following compound administration. Data are plotted graphically.
as §1, with “Embryos were” for “Embryos are”, “DMSO, were” for “DMSO, are”, “reagent was” for “reagent is”, “Data were” for “Data are”, “plotted graphically with Prism software.” for “plotted graphically.”

[2] = tested on: primary neurons expressing human mutant aSYN A30P; assay: Primary neuronal culture, neurite morphology (Cellomics ArrayScan); assay type: cell-based, Drosophila; conditions: for neurite length and branching in images vs DMSO controls: 60 nM, FIG. 1B, 1C
Method: Primary cell cultures are prepared from mid-gastrula stage embryos as described previously (Sepp et al., 2008). Briefly, embryos are collected on agar media plates and dechorionated in 50% bleach for 4 min., followed by rinsing with sterile distilled water. Embryos are homogenized in Shields and Sang M3 media (Sigma) in a Dounce homogenizer, and debris are pelleted by centrifugation at 40 g for 10 min and then 5 min. Neuroblasts are pelleted by centrifugation at 380G for 10 min. Cells are resuspended at 1×10^6 cells/mL in Shields and Sang M3 media supplemented with 10 U/mL penicillin, 10 ug/mL streptomycin, and 200 ng/mL insulin, and plated on 384-well plates (Corning) at 50 uL/well. Cells are incubated at 21° C. Compound is applied 24 hrs after cells are plated. Stock compounds (15 mM) and log dilutions (10^−1, 10^−2, 10^−3, 10^−4, and 10^−5) are prepared in DMSO, then each stock is further diluted 1/10 with media, and 1 uL of this working reagent is applied to culture wells. Cultures are matured for 7 days. Cultures are fixed and stained as described previously (Halter et al., 1995), using pan-neuronal marker anti-elav (1:10, Developmental Studies Hybridoma Bank), and anti-human aSYN (1:1000, Abeam), and dopaminergic neuron marker anti-tyrosine hydroxylase (1:1000, Millipore). Cultures are imaged on a Cellomics robotic fluorescence microscope, and morphologies are quantified with Cellomics ArrayScan algorithms and statistically processed with Prism software.
Primary cell cultures were prepared from mid-gastrula stage embryos as described previously (Sepp et al., 2008). Briefly, embryos are collected on agar media plates and dechorionated in 50% bleach for 4 min., followed by rinsing with sterile distilled water. Embryos were homogenized in Shields and Sang M3 media (Sigma) in a Dounce homogenizer, and debris pelleted by centrifugation at 40 g for 10 min and then 5 min. Neuroblasts were pelleted by centrifugation at 380G for 10 min. Cells were resuspended at 1×10^6 cells/mL in Shields and Sang M3 media supplemented with 10 U/mL penicillin, 10 ug/mL streptomycin, and 200 ng/mL insulin, and plated on 384-well plates (Corning) at 50 uL/well. Cells were incubated at 21° C. Compound was applied 24 hrs after cells were plated. Stock compounds (15 mM) and log dilutions (10^−1, 10^−2, 10^−3, 10^−4, and 10^−5) were prepared in DMSO, then each stock was further diluted 1/10 with media, and 1 uL of this working reagent was applied to culture wells. Cultures were matured for 7 days. Cultures were fixed and stained as described previously (Halter et al., 1995), using pan-neuronal marker anti-GFP (1:1000, Life Technologies), and anti-human aSYN (1:1000, Abcam). Cultures were imaged on a Cellomics robotic fluorescence microscope, and morphologies are quantified with Cellomics ArrayScan algorithms and statistically processed with Prism software.

[3] = tested on: human mutant aSYN (AAV1/2 A53T α-Synuclein); assay: Quantitative immunoblot of aSYN in AAV-aSYN rat model of Parkinson's disease; assay type: in vivo; conditions: 37.4 ug/h into third ventricle; for aSYN protein levels in postmortem rat brain immunoblots: TPT vs vehicle
Text: An AAV 1/2-aSYN A53T vector delivery-based over-expression of aSYN in the rat substantia nigra was chosen to model PD synucleinopathy, since it replicates progressive nigrostriatal degeneration and basal ganglia-based motor features of PD better than existing stable transgenic models. Furthermore, time of symptom onset is far more predictable, thus reducing experimental noise. Viral vectors will be delivered as using stereotactic injection. Briefly, 20 Sprague Dawley rats (280 g, Charles River) were injected with AAV 1/2-aSYN A53T to the experimental hemisphere (right) and AAV1/2-GFP to the control hemisphere (left) using standard stereotaxic procedures and isoflurane/oxygen anesthesia. Vector (2 μL) was delivered by microinjector (Stoelting, Kiel, Wis.) at 0.2 μL/min with coordinates from Bregma: AP, −5.2 mm; ML, −2.0 mm; DV, −7.5 mm. Viral stock concentrations for both AAV1/2 GFP and AAV1/2-aSYN A53T were 1.7×10^12 gp/mL. Animals were housed in pairs at 20° C. with a 12 hr light/dark cycle with food and water ad libitum. Animals recovered were maintained with regular care for 3 weeks as viral gene expression of aSYN built to emerging pathological levels as characterized previously.
On Day 1 of Week 3, rats were fitted with osmotic mini-pumps to administer TPT to the third ventricle. Intracerebral administration was chosen to maximize the amount of drug given to the brain and minimize side effects in peripheral tissues. Using standard stereotaxic procedures, a 22-gauge guide cannula (Plastics One, Roanoake, Va.) was placed into the third ventricle (AP, −1.3 mm, ML, +0.0 mm; DV −4.6 mm with respect to bregma) of isoflurane/oxygen anesthetized rats, and anchored with dental acrylic. […]
Standard Western blot techniques are used on dissected postmortem tissues to determine if aSYN levels decrease in response to TPT treatment. […] Blots are imaged on an Odyssey Quantitative Fluorescence Imaging System. Two-tailed student's t-test is used Western blot quantifications.

[4] = Pharmacokinetic analysis: mass-spec of TPT in postmortem rat brain; assay type: in vivo; conditions: osmotic pump into third ventricle, 37.4 ug/h
Text: On Day 1 of Week 3, rats were fitted with osmotic mini-pumps to administer TPT to the third ventricle. Intracerebral administration was chosen to maximize the amount of drug given to the brain and minimize side effects in peripheral tissues. Using standard stereotaxic procedures, a 22-gauge guide cannula (Plastics One, Roanoake, Va.) was placed into the third ventricle (AP, −1.3 mm, ML, +0.0 mm; DV −4.6 mm with respect to bregma) of isoflurane/oxygen anesthetized rats, and anchored with dental acrylic. Rats were bilaterally infused with TPT or vehicle using a mini-osmotic pulp (Alzet model 2ML2 pump, flow rate 5.0 uL/hr, Durect Corp. Cupertino) to the third ventricle, which was delivered for 2 weeks. The pumps were filled with 16.34 mM topotecan (TPT) (CPT06, Molcan Corporation) in 50 mM tartaric acid with 0.9% saline (delivered at 37.4 μg/h), or vehicle control alone. Upon cessation of drug on Day 7 of Week 4 or at some other time point, rats were sacrificed by an overdose of pentobarbital (1.0 mL of 240 mg/mL, i.p.) and exsanguinated by transcardial saline perfusion followed by 4% paraformaldehyde.
Postmortem brain samples were subjected to standard quadrupole mass […] analysis to determine brain penetration of TPT into tissue samples.

[5] = tested on: polyglutamine-expanded Huntingtin protein; conditions: cited from earlier work; for polyglutamine protein aggregation: Huntington's disease (HD) model
[6] = biological target: HSD1 (Mus musculus, UniProt P50172); conditions: i.p. 20 mg/kg, every other day for 2 months; cited from earlier work
Sequence of HSD1 (P50172 whole entry): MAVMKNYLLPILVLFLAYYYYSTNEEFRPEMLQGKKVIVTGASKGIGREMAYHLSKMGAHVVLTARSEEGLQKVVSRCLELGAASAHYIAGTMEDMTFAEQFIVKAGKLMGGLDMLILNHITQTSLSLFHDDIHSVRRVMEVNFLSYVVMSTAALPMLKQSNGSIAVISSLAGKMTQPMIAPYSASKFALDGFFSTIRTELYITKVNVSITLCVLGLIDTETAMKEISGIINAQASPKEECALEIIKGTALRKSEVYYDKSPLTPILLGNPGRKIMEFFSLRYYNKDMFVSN

[7] = tested on: gap junction; conditions: cited from earlier work
[8] = in vivo, cited from earlier work

## C[C@@H](CN1CC(=O)NC(=O)C1)N1CC(=O)NC(=O)C1 [dexrazoxane, Dexrazoxane]
[1]; 'med' dose 0.15 uM, n=9
  survival: 75%
[1]; medium dose 0.15 uM
  survival compared to DMSO vehicle-treated controls: improved survival

## CC[C@@]1(O)C(=O)OCc2c1cc1n(c2=O)Cc2cc3c(CN(C)C)c(O)ccc3nc2-1 [topotecan]
[2]; 30 nM, FIG. 1D
  neurite outgrowth vs DMSO control: improved neurite outgrowth
[2]
  neurite length and branching in images vs DMSO controls: longer neurites and reduced neuritic branching
[3]
  aSYN protein levels in postmortem rat brain immunoblots: reduced aSYN protein levels; also recorded: inverse relationship
[3]; listed as TPT
  aSYN protein levels in postmortem rat brain immunoblots: reduced in the TPT treatment with a dose-dependent trend
[3]; three rats, average 2725 ng TPT/g tissue
  reduction in aSYN normalized to beta-Actin vs vehicle control: ~2 fold
[4]
  average TPT brain level of three rats: 2725 ng TPT/g tissue
[4]; n=3 rats, listed as TPT
  TPT level in cortex, single rats: 6809 ng TPT/g tissue and 967 ng TPT/g tissue and 399 ng TPT/g tissue

## CC[C@@]1(O)C(=O)OCc2c1cc1n(c2=O)Cc2cc3cc(O)ccc3nc2-1 [camptothecin-OH, 10-hydroxy-camptothecin]
[2]; 30 nM
  neurite morphology profiles (image features) vs DMSO negative control: improved neurite morphology profiles
[2]; 30 nM, FIG. 1D
  neurite outgrowth vs DMSO control: improved neurite outgrowth
[2]; 30 nM, Mean±SEM, n=4, DMSO vehicle 15240±799.8 (n=18), P<0.05, FIG. 1D
  total neurite length per well: 20170±1430 um
[1]; 'hi' dose 15 uM, n=5
  survival: 100%
[1]; high dose 15 uM
  survival compared to DMSO vehicle-treated controls: improved survival

## CC1(C)[C@@H](OC(=O)CCC(=O)O)CC[C@]2(C)[C@H]3C(=O)C=C4[C@@H]5C[C@@](C)(C(=O)O)CC[C@]5(C)CC[C@@]4(C)[C@]3(C)CC[C@@H]12 [carbenoxolone, (3β)-3-[(3-carboxy-propanoyl)oxy]-11-oxoolean-12-en-30-oic acid]
[5]
  polyglutamine protein aggregation: protect against polyglutamine protein aggregation
[5]; early dosing
  lifespan and motor control: extend Drosophila HD model lifespan and improves motor control
[5]; in vivo, Drosophila
  rescue of toxicity of polyglutamine-expanded Huntingtin protein: in vivo rescue of toxicity
[6]
  inhibition of target enzyme HSD1: effective at inhibiting the target enzyme HSD1
[2]; 30 nM
  neurite morphology profiles (image features) vs DMSO negative control: improved neurite morphology profiles
[2]; 30 nM, FIG. 1E
  excessive branching vs DMSO vehicle controls: reduces the excessive branching phenotype; also recorded: reduced excessive branching
[2]; 30 nM, Mean±SEM, n=4, DMSO vehicle 4.416±0.2622 (n=16), P<0.05, FIG. 1E
  total branches per well: 3.198±0.1825
[2]
  neurite length and branching in images vs DMSO controls: longer neurites and reduced neuritic branching
[7]
  gap junction blocking activity: have gap junction blocking activity
[8]; concentrations needed for gap junction block
  crossing of the blood-brain-barrier: do not cross the blood-brain-barrier at high enough concentrations

## CC1(C)[C@@H](O)CC[C@]2(C)[C@H]3C(=O)C=C4[C@@H]5C[C@@](C)(C(=O)O)CC[C@]5(C)CC[C@@]4(C)[C@]3(C)CC[C@@H]12 [18β-glycyrrhetinic acid]
[5]
  polyglutamine protein aggregation: protect against polyglutamine protein aggregation
[7]
  gap junction blocking activity: have gap junction blocking activity
[8]
  crossing of the blood-brain-barrier: do not cross the blood-brain-barrier at high enough concentrations

From patent publication US20150148369A1, “CHEMICAL SUPPRESSORS OF NEUROTOXICITY IN SYNUCLEINOPATHIC DISEASES” (priority 2012, published 2015)
